Literature values as cited in paper PMC5611894 (Journal of Alzheimer's Disease, 2017).

Legend:
Aβ42 oligomers = settings: SPR equilibrium binding, Aβ42 oligomers immobilized on chip
Aβ42 monomers = settings: SPR equilibrium binding, Aβ42 monomers immobilized on chip

## CC[C@]12C=CCN3CC[C@]4(C(=C(C(=O)OC)C1)Nc1ccccc14)[C@@H]32 [tabersonine]
Aβ42 oligomers
  Kd: 535 µM
Aβ42 monomers
  Kd: 69 µM
